Consider 1 compound from ChEMBL document CHEMBL1140552, “Preparation, characterization and in vivo conversion of new water-soluble sulfenamide prodrugs of carbamazepine” (Bioorg Med Chem Lett, 2007).

For data set [1], the system named is Rattus norvegicus. As to the kind of experiment: Cmax in Sprague-Dawley rat assessed as carbamazepine level at 5.50 mg/227 g, iv. In kind it is ADME, organism-based. Set-up: route intravenous. The settings on record: in vivo.
A short description of data set [2]: Solubility at pH 2.6. The format is physicochemical. The settings on record: buffer.
The subject of data set [3] is Rattus norvegicus. Description: AUC in Sprague-Dawley rat assessed as carbamazepine level at 4.54 mg/187 g, iv. In kind it is ADME, organism-based, Plasma. The settings on record: in vivo.
The subject of data set [4] is Rattus norvegicus. As to the kind of experiment: AUC in Sprague-Dawley rat assessed as carbamazepine level at 5.50 mg/227 g, iv. The settings on record: in vivo. The format is ADME, organism-based, Plasma.
Data set [5] has as its system Rattus norvegicus. As to the kind of experiment: Cmax in Sprague-Dawley rat assessed as carbamazepine level at 4.54 mg/187 g, iv. The settings on record: in vivo. The format is ADME, organism-based. Further details: route intravenous.

Broadly, the Cmax is the maximum level reached in the sampled fluid or tissue. By solubility is commonly meant how much of the substance goes into solution per volume. Lower therefore signals little dissolved substance. With `NCCSNC(=O)N1c2ccccc2C=Cc2ccccc21.O=C(O)C(F)(F)F`, the Cmax was 16300 ng/mL in the data set on Rattus norvegicus [1] and 14100 ng/mL with Rattus norvegicus [5]. The compound also displayed a solubility in data set [2] of 100 mg/mL. In addition, the AUC in the data set with Rattus norvegicus [3] stood at 964 µg/min/mL; in the data set on Rattus norvegicus [4], 545 µg/min/mL.
